Test system: HBV viral load (viral production from HepAD38 cells)
Assay: Activity of test compounds on viral production from HepAD38 cells (viral load by qPCR of HBV core sequence)
Format: cell-based
Settings: Hepatitis B virus, HePAD38, 120 h, viral load lowering, 5 days, qPCR of supernatant, read-out: VL HepAD38 EC50 range
Summary of the method: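 EC50 and CC50 come from four-parameter logistic fits: HBV core DNA in supernatant by TaqMan qPCR against DNA standards, normalised to DMSO controls, and cell viability by CellTiter-Glo. Cells were plated at 50,000/well without tetracycline (2% FBS) and exposed to compounds (highest 10 μM) for 5 days, 37 °C.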

SMILES | EC50 [nM]
CCCCC1(O)CC2CC(c3nc(Cl)n(C)c3C(=O)Nc3ccc(F)c(Cl)c3)CC2C1 (stereo not shown) [Example 113, 4-(5-Butyl-5-hydroxyoctahydropentalen-2-yl)-2-chloro-N-(3-chloro-4-fluorophenyl)-1-methyl-1H-imidazole-5-carboxamide] | < 10
Cn1cc(C2(O)CC3CC(c4ncn(C)c4C(=O)Nc4ccc(F)c(C#N)c4)CC3C2)c(C(F)(F)F)n1 (stereo not shown) [Example 115, N-(3-Cyano-4-fluorophenyl)-4-(5-hydroxy-5-(1-methyl-3-(trifluoromethyl)-1H-pyrazol-4-yl)octahydropentalen-2-yl)-1-methyl-1H-imidazole-5-carboxamide] | < 10
Cn1cnc(C2CC3CC(O)(c4cc[nH]n4)CC3C2)c1C(=O)Nc1ccc(F)c(Cl)c1 (stereo not shown) [Example 116, N-(3-chloro-4-fluorophenyl)-4-(5-hydroxy-5-(1H-pyrazol-3-yl)octahydropentalen-2-yl)-1-methyl-1H-imidazole-5-carboxamide] | < 10
Cn1cc(Br)c(C2(O)CC3CC(c4ncn(C)c4C(=O)Nc4ccc(F)c(Cl)c4)CC3C2)n1 (stereo not shown) [Example 117, 4-(5-(4-bromo-1-methyl-1H-pyrazol-3-yl)-5-hydroxyoctahydropentalen-2-yl)-N-(3-chloro-4-fluorophenyl)-1-methyl-1H-imidazole-5-carboxamide] | < 10
Cn1ccc(C2(O)CC3CC(c4ncn(C)c4C(=O)Nc4ccc(F)c(Cl)c4)CC3C2)n1 (stereo not shown) [Example 118, N-(3-chloro-4-fluorophenyl)-4-(5-hydroxy-5-(1-methyl-1H-pyrazol-3-yl)octahydropentalen-2-yl)-1-methyl-1H-imidazole-5-carboxamide] | < 10
CCn1nccc1C1(O)CC2CC(c3ncn(C)c3C(=O)Nc3ccc(F)c(Cl)c3)CC2C1 (stereo not shown) [Example 119, N-(3-chloro-4-fluorophenyl)-4-(5-(1-ethyl-1H-pyrazol-5-yl)-5-hydroxyoctahydropentalen-2-yl)-1-methyl-1H-imidazole-5-carboxamide] | < 10
CC(C)n1nccc1C1(O)CC2CC(c3ncn(C)c3C(=O)Nc3ccc(F)c(Cl)c3)CC2C1 (stereo not shown) [Example 120, N-(3-chloro-4-fluorophenyl)-4-(5-hydroxy-5-(1-isopropyl-1H-pyrazol-5-yl)octahydropentalen-2-yl)-1-methyl-1H-imidazole-5-carboxamide] | < 10
Cn1cc(C2(O)CC3CC(c4ncn(C)c4C(=O)Nc4ccc(F)c(Cl)c4)CC3C2)cn1 (stereo not shown) [Example 121, N-(3-chloro-4-fluorophenyl)-4-(5-hydroxy-5-(1-methyl-1H-pyrazol-4-yl)octahydropentalen-2-yl)-1-methyl-1H-imidazole-5-carboxamide] | < 10
Cn1cnc(C2CC3CC(O)(c4c(Cl)cnn4C)CC3C2)c1C(=O)Nc1ccc(F)c(Cl)c1 (stereo not shown) [Example 122, 4-(5-(4-chloro-1-methyl-1H-pyrazol-5-yl)-5-hydroxyoctahydro-pentalen-2-yl)-N-(3-chloro-4-fluorophenyl)-1-methyl-1H-imidazole-5-carboxamide] | < 10
Cn1cnc(C2CC3CC(O)(Cc4c(Br)cnn4C)CC3C2)c1C(=O)Nc1ccc(F)c(Cl)c1 (stereo not shown) [Example 123, 4-(5-((4-bromo-1-methyl-1H-pyrazol-5-yl)methyl)-5-hydroxyoctahydropentalen-2-yl)-N-(3-chloro-4-fluorophenyl)-1-methyl-1H-imidazole-5-carboxamide] | < 10
Cn1cnc(C2CC3CC(O)(c4c(F)cnn4C)CC3C2)c1C(=O)Nc1ccc(F)c(Cl)c1 (stereo not shown) [Example 124, N-(3-chloro-4-fluorophenyl)-4-(5-(4-fluoro-1-methyl-1H-pyrazol-5-yl)-5-hydroxyoctahydropentalen-2-yl)-1-methyl-1H-imidazole-5-carboxamide] | < 10
Cn1cnc(C2CC3CC(O)(c4c(C#N)cnn4C)CC3C2)c1C(=O)Nc1ccc(F)c(Cl)c1 (stereo not shown) [Example 125, N-(3-chloro-4-fluorophenyl)-4-(5-(4-cyano-1-methyl-1H-pyrazol-5-yl)-5-hydroxyoctahydropentalen-2-yl)-1-methyl-1H-imidazole-5-carboxamide] | < 10
Cn1cnc(C2CC3CC(O)(c4c(C(N)=O)cnn4C)CC3C2)c1C(=O)Nc1ccc(F)c(Cl)c1 (stereo not shown) [Example 126, 5-(5-(5-((3-chloro-4-fluorophenyl)carbamoyl)-1-methyl-1H-imidazol-4-yl)-2-hydroxyoctahydropentalen-2-yl)-1-methyl-1H-pyrazole-4-carboxamide] | < 10
Cn1cnc(C2CC3CC(O)(c4c([N+](=O)[O-])cnn4C)CC3C2)c1C(=O)Nc1ccc(F)c(Cl)c1 (stereo not shown) [Example 127, N-(3-chloro-4-fluorophenyl)-4-(5-hydroxy-5-(1-methyl-4-nitro-1H-pyrazol-5-yl)octahydropentalen-2-yl)-1-methyl-1H-imidazole-5-carboxamide] | 10 to 50
Cn1cc(CC2(O)CC3CC(c4ncn(C)c4C(=O)Nc4ccc(F)c(Cl)c4)CC3C2)cn1 (stereo not shown) [Example 130, N-(3-chloro-4-fluorophenyl)-4-(5-hydroxy-5-((1-methyl-1H-pyrazol-4-yl)methyl)octahydropentalen-2-yl)-1-methyl-1H-imidazole-5-carboxamide] | < 10
Cc1cnn(C)c1C1(O)CC2CC(c3ncn(C)c3C(=O)Nc3ccc(F)c(Cl)c3)CC2C1 (stereo not shown) [Example 131, N-(3-chloro-4-fluorophenyl)-4-(5-(1,4-dimethyl-1H-pyrazol-5-yl)-5-hydroxyoctahydropentalen-2-yl)-1-methyl-1H-imidazole-5-carboxamide] | < 10
Cn1cc(C2(O)CC3CC(c4ncn(C)c4C(=O)Nc4ccc(F)c(Cl)c4)CC3C2)c(C(F)F)n1 (stereo not shown) [Example 132, N-(3-chloro-4-fluorophenyl)-4-(5-(3-(difluoromethyl)-1-methyl-1H-pyrazol-4-yl)-5-hydroxyoctahydropentalen-2-yl)-1-methyl-1H-imidazole-5-carboxamide] | < 10
Cn1cnc(C2CC3CC(O)(c4cc(C(F)F)nn4C)CC3C2)c1C(=O)Nc1ccc(F)c(Cl)c1 (stereo not shown) [Example 133, N-(3-chloro-4-fluorophenyl)-4-(5-(3-(difluoromethyl)-1-methyl-1H-pyrazol-5-yl)-5-hydroxyoctahydropentalen-2-yl)-1-methyl-1H-imidazole-5-carboxamide] | < 10
COc1cnn(C)c1C1(O)CC2CC(c3ncn(C)c3C(=O)Nc3ccc(F)c(Cl)c3)CC2C1 (stereo not shown) [Example 134, N-(3-chloro-4-fluorophenyl)-4-(5-hydroxy-5-(4-methoxy-1-methyl-1H-pyrazol-5-yl)octahydropentalen-2-yl)-1-methyl-1H-imidazole-5-carboxamide] | < 10
Cc1cn[nH]c1C1(O)CC2CC(c3ncn(C)c3C(=O)Nc3ccc(F)c(Cl)c3)CC2C1 (stereo not shown) [Example 135, N-(3-chloro-4-fluorophenyl)-4-(5-hydroxy-5-(4-methyl-1H-pyrazol-5-yl)octahydropentalen-2-yl)-1-methyl-1H-imidazole-5-carboxamide] | < 10
Cn1cc(F)c(C2(O)CC3CC(c4ncn(C)c4C(=O)Nc4ccc(F)c(Cl)c4)CC3C2)n1 (stereo not shown) [Example 136, N-(3-chloro-4-fluorophenyl)-4-(5-(4-fluoro-1-methyl-1H-pyrazol-3-yl)-5-hydroxyoctahydropentalen-2-yl)-1-methyl-1H-imidazole-5-carboxamide] | < 10
[2H]C([2H])([2H])n1nccc1C1(O)CC2CC(c3ncn(C)c3C(=O)Nc3ccc(F)c(Cl)c3)CC2C1 (stereo not shown) [Example 137, N-(3-chloro-4-fluorophenyl)-4-(5-hydroxy-5-(1-(methyl-d3)-1H-pyrazol-5-yl)octahydropentalen-2-yl)-1-methyl-1H-imidazole-5-carboxamide] | < 10
Cc1nc(C2CC3CC(O)(c4c(Cl)cnn4C)CC3C2)c(C(=O)Nc2ccc(F)c(Cl)c2)n1C (stereo not shown) [Example 138, 4-(5-(4-Chloro-1-methyl-1H-pyrazol-5-yl)-5-hydroxyoctahydropentalen-2-yl)-N-(3-chloro-4-fluorophenyl)-1,2-dimethyl-1H-imidazole-5-carboxamide] | < 10
Cn1cc(Cl)c(C2(O)CC3CC(c4ncn(C)c4C(=O)Nc4ccc(F)c(Cl)c4)CC3C2)n1 (stereo not shown) [Example 139, 4-(5-(4-Chloro-1-methyl-1H-pyrazol-3-yl)-5-hydroxyoctahydropentalen-2-yl)-N-(3-chloro-4-fluorophenyl)-1-methyl-1H-imidazole-5-carboxamide] | < 10
Cc1nc(C2CC3CC(O)(c4ccnn4C(C)C)CC3C2)c(C(=O)Nc2ccc(F)c(Cl)c2)n1C (stereo not shown) [Example 140, N-(3-Chloro-4-fluorophenyl)-4-(5-hydroxy-5-(1-isopropyl-1H-pyrazol-5-yl)octahydropentalen-2-yl)-1,2-dimethyl-1H-imidazole-5-carboxamide] | < 10
Cn1cnc(C2CC3CC(O)(c4cnn(C)c4C(F)(F)F)CC3C2)c1C(=O)Nc1ccc(F)c(Cl)c1 (stereo not shown) [Example 141, N-(3-Chloro-4-fluorophenyl)-4-(5-hydroxy-5-(1-methyl-5-(trifluoromethyl)-1H-pyrazol-4-yl)octahydropentalen-2-yl)-1-methyl-1H-imidazole-5-carboxamide] | < 10
Cn1cnc(C2CC3CC(O)(c4nn(C)c(C(F)(F)F)c4Br)CC3C2)c1C(=O)Nc1ccc(F)c(Cl)c1 (stereo not shown) [Example 142, 4-(5-(4-Bromo-1-methyl-5-(trifluoromethyl)-1H-pyrazol-3-yl)-5-hydroxyoctahydropentalen-2-yl)-N-(3-chloro-4-fluorophenyl)-1-methyl-1H-imidazole-5-carboxamide] | < 10
Cn1cnc(C2CC3CC(O)(c4[nH]ncc4Cl)CC3C2)c1C(=O)Nc1ccc(F)c(Cl)c1 (stereo not shown) [Example 143, 4-(5-(4-Chloro-1H-pyrazol-5-yl)-5-hydroxyoctahydropentalen-2-yl)-N-(3-chloro-4-fluorophenyl)-1-methyl-1H-imidazole-5-carboxamide] | < 10

— patent publication US12655130B2 (ASSEMBLY BIOSCIENCES, INC., priority 2020, dated 2026)
